From ChEMBL document CHEMBL6074668 (J Med Chem, 2024)
The source made the active and inactive calls. No cut-off for these calls is given here.

How the values were obtained:
[1] = molecular target: T1, Kappa-type opioid receptor (Homo sapiens, UniProt P41145); assay: Agonist activity at human kappa opioid receptor expressed in CHO-K1 cells assessed as inhibition of forskolin-stimulated cAMP accumulation by HitHunter assay based luminescence analysis; type: functional, cell-based
[2] = molecular target: T1, Kappa-type opioid receptor; assay: Displacement of [3H]U69593 from kappa opioid receptor (unknown origin) expressed in human U2OS cell membrane by competitive radioligand binding assay; type: cell membranes
Mu-type opioid receptor = Mu-type opioid receptor (Homo sapiens, UniProt P35372); assay: Displacement of [3H]DAMGO from mu opioid receptor (unknown origin) expressed in CHO cell membrane by competitive radioligand binding assay; type: cell membranes
[3] = molecular target: T1, Kappa-type opioid receptor; assay: Binding affinity to kappa opioid receptor (unknown origin) by radioligand displacement assay
[4] = molecular target: 5-hydroxytryptamine receptor 2B (Homo sapiens, UniProt P41595); assay: Binding affinity to 5HT2B receptor (unknown origin) by radioligand displacement assay
[5] = molecular target: T2, 5-hydroxytryptamine receptor 3A (Homo sapiens, UniProt P46098); assay: Binding affinity to 5HT3 receptor (unknown origin) by radioligand displacement assay
T2 sequence (P46098 whole entry): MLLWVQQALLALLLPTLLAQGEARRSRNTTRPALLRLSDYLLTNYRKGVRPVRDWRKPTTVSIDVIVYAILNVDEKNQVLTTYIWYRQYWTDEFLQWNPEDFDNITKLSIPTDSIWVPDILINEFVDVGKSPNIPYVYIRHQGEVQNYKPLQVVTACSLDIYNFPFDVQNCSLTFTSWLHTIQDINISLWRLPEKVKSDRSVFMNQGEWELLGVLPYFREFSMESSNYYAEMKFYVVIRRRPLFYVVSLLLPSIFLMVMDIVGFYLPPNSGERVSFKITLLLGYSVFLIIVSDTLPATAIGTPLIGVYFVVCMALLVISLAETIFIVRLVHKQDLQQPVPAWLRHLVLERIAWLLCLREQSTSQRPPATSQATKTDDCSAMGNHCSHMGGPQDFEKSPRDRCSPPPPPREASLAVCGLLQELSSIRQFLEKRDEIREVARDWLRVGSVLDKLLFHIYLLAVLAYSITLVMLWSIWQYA

[6] = molecular target: 5-hydroxytryptamine receptor 7 (Homo sapiens, UniProt P34969); assay: Binding affinity to 5HT7A receptor (unknown origin) by radioligand displacement assay
[7] = molecular target: T3, Alpha-1B adrenergic receptor (Homo sapiens, UniProt P35368); assay: Binding affinity to alpha1B adrenergic receptor (unknown origin) by radioligand displacement assay
T3 sequence (P35368 whole entry): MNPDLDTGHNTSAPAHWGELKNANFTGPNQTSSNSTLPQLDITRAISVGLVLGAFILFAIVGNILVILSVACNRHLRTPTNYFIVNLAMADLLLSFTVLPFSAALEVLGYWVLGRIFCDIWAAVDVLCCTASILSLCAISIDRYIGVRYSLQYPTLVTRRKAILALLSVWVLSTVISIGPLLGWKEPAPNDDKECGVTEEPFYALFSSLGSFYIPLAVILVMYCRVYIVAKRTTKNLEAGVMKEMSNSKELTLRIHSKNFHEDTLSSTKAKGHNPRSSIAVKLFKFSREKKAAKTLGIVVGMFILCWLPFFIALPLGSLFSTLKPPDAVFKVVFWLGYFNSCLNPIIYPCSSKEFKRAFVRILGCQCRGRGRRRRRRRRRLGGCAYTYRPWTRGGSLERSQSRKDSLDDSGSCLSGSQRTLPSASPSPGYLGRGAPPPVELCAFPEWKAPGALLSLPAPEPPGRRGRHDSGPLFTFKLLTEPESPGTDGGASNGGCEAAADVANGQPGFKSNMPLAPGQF

[8] = molecular target: T4, Alpha-2A adrenergic receptor (Homo sapiens, UniProt P08913); assay: Binding affinity to alpha2A adrenergic receptor (unknown origin) by radioligand displacement assay
T4 sequence (P08913 whole entry): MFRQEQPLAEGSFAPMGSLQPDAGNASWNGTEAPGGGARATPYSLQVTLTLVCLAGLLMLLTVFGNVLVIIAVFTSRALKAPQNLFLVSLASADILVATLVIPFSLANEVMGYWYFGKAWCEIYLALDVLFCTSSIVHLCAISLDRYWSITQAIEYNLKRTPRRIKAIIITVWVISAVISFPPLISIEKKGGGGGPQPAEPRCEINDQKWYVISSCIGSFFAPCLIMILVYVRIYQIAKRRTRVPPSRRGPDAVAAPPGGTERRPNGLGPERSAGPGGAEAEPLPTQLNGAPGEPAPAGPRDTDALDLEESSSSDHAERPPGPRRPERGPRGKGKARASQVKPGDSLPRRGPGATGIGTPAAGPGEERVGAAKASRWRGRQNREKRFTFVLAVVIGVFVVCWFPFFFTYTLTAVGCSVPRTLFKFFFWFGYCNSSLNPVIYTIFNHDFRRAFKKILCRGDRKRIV

[9] = molecular target: T5, Alpha-2C adrenergic receptor (Homo sapiens, UniProt P18825); assay: Binding affinity to alpha2C adrenergic receptor (unknown origin) by radioligand displacement assay
T5 sequence (P18825 whole entry): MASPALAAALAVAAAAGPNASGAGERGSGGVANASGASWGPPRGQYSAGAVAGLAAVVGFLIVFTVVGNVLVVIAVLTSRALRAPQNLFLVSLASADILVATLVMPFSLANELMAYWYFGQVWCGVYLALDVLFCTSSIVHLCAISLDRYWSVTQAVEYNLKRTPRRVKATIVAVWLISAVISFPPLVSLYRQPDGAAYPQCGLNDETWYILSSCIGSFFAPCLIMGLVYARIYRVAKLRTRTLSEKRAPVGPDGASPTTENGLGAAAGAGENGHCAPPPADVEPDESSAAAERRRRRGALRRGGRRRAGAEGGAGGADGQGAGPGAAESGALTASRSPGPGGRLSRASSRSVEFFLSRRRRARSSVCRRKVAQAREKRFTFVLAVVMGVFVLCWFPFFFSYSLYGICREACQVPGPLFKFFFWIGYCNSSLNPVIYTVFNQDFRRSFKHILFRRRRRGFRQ

[10] = Binding affinity to alpha7 […] receptor (unknown origin) by radioligand displacement assay; design: species or system Homo sapiens
[11] = molecular target: Voltage-gated inwardly rectifying potassium channel KCNH2 (Homo sapiens, UniProt Q12809); assay: Binding affinity to hERG by radioligand displacement assay; type: toxicity
[12] = Binding affinity to Sigma2 opioid receptor (unknown origin) by radioligand displacement assay; design: species or system Homo sapiens
[13] = molecular target: Atypical chemokine receptor 3 (Homo sapiens) (UniProt P25106); assay: Agonist activity at CXCR7 receptor (unknown origin) assessed as beta arrestin2 recruitment at >=3 uM by PRESTO-Tango assay; type: functional; conditions: filed as agonist
[14] = molecular target: 5-hydroxytryptamine receptor 2A (Homo sapiens, UniProt P28223)
[15] = molecular target: Sodium-dependent noradrenaline transporter (Homo sapiens, UniProt P23975)

## C/C=C1/CN2CC[C@]34C(=C(C(=O)OC)[C@H]1C[C@H]23)Nc1ccc(I)cc14
[1]
  EC50: 0.0057 µM
[2]
  Ki: 87 pM
Mu-type opioid receptor
  Ki: 3.6 µM
[3]
  Ki: 0.001 µM
[4]
  Ki: 0.767 µM
[5]
  Ki: 0.384 µM
[6]
  Ki: 1.39 µM
[7]
  Ki: 2.02 µM
[8]
  Ki: 0.732 µM
[9]
  Ki: 2.86 µM
[10]
  Ki: 5.49 µM
[11]
  Ki: 1.1 µM
[12]
  Ki: 2.22 µM
[13]
  Activity: Active; Weak Activity Compared To Vuf11207
[14]
  Ki: 2.31 µM
[15]
  Ki: 3.44 µM
